Data on 21 compounds can be found in US20200016136A1 (VIIV HEALTHCARE UK (NO. 5) LIMITED, priority 2017, published 2020).

The structures appear in SMILES notation.

In the assay the test system is NL-RLuc virus (recombinant NL4-3 HIV with Renilla Luciferase gene). Briefly: Inhibition of HIV replication (NL-RLuc virus in MT-2 cells, luciferase readout). In kind it is cell-based, Human immunodeficiency virus (HIV). Particulars: MT2, 120 h. Put shortly: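 EC50 derived via median effect equation from at least 2 experiments, using luciferase expression as virus-growth readout. Replication-competent NL-RLuc reporter virus (nef partly replaced by Renilla luciferase) infected MT-2 cells with serial compound dilutions; 5-day incubation in RPMI 1640 plus 10% FBS.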
Broadly, the EC50 is the concentration at which the effect is half-maximal. As for `Cc1cc(F)ccc1CN1CCc2cc(-c3cnc(Cl)c([C@H](OC(C)(C)C)C(=O)O)c3N3CCC(C)(C)CC3)ccc2C1` [Example 113, (S)-2-(tert-Butoxy)-2-(2-chloro-4-(4,4-dimethylpiperidin-1-yl)-5-(2-(4-fluoro-2-methylbenzyl)-1,2,3,4-tetrahydroisoquinolin-6-yl)pyridin-3-yl)acetic Acid], the EC50 is 3 nM. For `CC1(C)CCN(Cc2nc(Cl)c([C@H](OC(C)(C)C)C(=O)O)c(N3CCC(C)(C)CC3)c2-c2ccc3c(c2)CCN(c2ncnc4c2oc2ncccc24)C3)CC1` [Example 114, (S)-2-(tert-Butoxy)-2-(2-chloro-4-(4,4-dimethylpiperidin-1-yl)-6-((4,4-dimethylpiperidin-1-yl)methyl)-5-(2-(pyrido[3′,2′:4,5]furo[3,2-d]pyrimidin-4-yl)-1,2,3,4-tetrahydroisoquinolin-6-yl)pyridin-3-yl)acetic Acid] the value was 0.1 nM; for `CC1(C)CCN(c2c(-c3ccc4c(c3)CCN(c3ncnc5c3oc3ncccc35)C4)c(CO)nc(Cl)c2[C@H](OC(C)(C)C)C(=O)O)CC1` [Example 115, (S)-2-(tert-Butoxy)-2-(2-chloro-4-(4,4-dimethylpiperidin-1-yl)-6-(hydroxymethyl)-5-(2-(pyrido[3′,2′:4,5]furo[3,2-d]pyrimidin-4-yl)-1,2,3,4-tetrahydroisoquinolin-6-yl)pyridin-3-yl)acetic Acid], 1 nM. The value for `Cc1cccc(Cl)c1CN1CCc2cc(-c3c(C(=O)O)nc(C)c([C@H](OC(C)(C)C)C(=O)O)c3N3CCC(C)(C)CC3)ccc2C1` [Example 116, (S)-5-(tert-Butoxy(carboxy)methyl)-3-(2-(2-chloro-6-methylbenzyl)-1,2,3,4-tetrahydroisoquinolin-6-yl)-4-(4,4-dimethylpiperidin-1-yl)-6-methylpicolinic Acid] was 4 nM; that for `Cc1cccc(Cl)c1CN1CCc2cc(-c3c(CO)ncc([C@H](OC(C)(C)C)C(=O)O)c3N3CCC(C)(C)CC3)ccc2C1` [Example 117, (S)-2-(tert-Butoxy)-2-(5-(2-(2-chloro-6-methylbenzyl)-1,2,3,4-tetrahydroisoquinolin-6-yl)-4-(4,4-dimethylpiperidin-1-yl)-6-(hydroxymethyl)pyridin-3-yl)acetic Acid] was 1 nM; that for `Cc1cccc(Cl)c1CN1CCc2cc(-c3c(C(=O)N4CCC(C)(C)CC4)nc(C)c([C@H](OC(C)(C)C)C(=O)O)c3N3CCC(C)(C)CC3)ccc2C1` [Example 118, (S)-2-(tert-Butoxy)-2-(5-(2-(2-chloro-6-methylbenzyl)-1,2,3,4-tetrahydroisoquinolin-6-yl)-4-(4,4-dimethylpiperidin-1-yl)-6-(4,4-dimethylpiperidine-1-carbonyl)-2-methylpyridin-3-yl)acetic Acid] was 1 nM. `Cc1nc(C)c([C@H](OC(C)(C)C)C(=O)O)c(N2CCC(C)(C)CC2)c1-c1ccc2c(c1)CCN(c1cc(N3CCOCC3)ncn1)C2` [Example 119, (S)-2-(tert-Butoxy)-2-(4-(4,4-dimethylpiperidin-1-yl)-2,6-dimethyl-5-(2-(6-morpholinopyrimidin-4-yl)-1,2,3,4-tetrahydroisoquinolin-6-yl)pyridin-3-yl)acetic Acid]: the EC50 stood at 5 nM. For `Cc1nc(C)c([C@H](OC(C)(C)C)C(=O)O)c(N2CCC(C)(C)CC2)c1-c1ccc2c(c1)CCN(c1cc(N3CCC(CO)CC3)ncn1)C2` [Example 120, (S)-2-(tert-Butoxy)-2-(4-(4,4-dimethylpiperidin-1-yl)-5-(2-(6-(4-(hydroxymethyl)piperidin-1-yl)pyrimidin-4-yl)-1,2,3,4-tetrahydroisoquinolin-6-yl)-2,6-dimethylpyridin-3-yl)acetic Acid] the value was 14 nM. For `Cc1nc(C)c([C@H](OC(C)(C)C)C(=O)O)c(N2CCC(C)(C)CC2)c1-c1ccc2c(c1)CCN(c1cc(N3CCC(CCO)CC3)ncn1)C2` [Example 121, (S)-2-(tert-Butoxy)-2-(4-(4,4-dimethylpiperidin-1-yl)-5-(2-(6-(4-(2-hydroxyethyl)piperidin-1-yl)pyrimidin-4-yl)-1,2,3,4-tetrahydroisoquinolin-6-yl)-2,6-dimethylpyridin-3-yl)acetic Acid] the value was 9 nM; for `Cc1nc(C)c([C@H](OC(C)(C)C)C(=O)O)c(N2CCC(C)(C)CC2)c1-c1ccc2c(c1)CCN(c1ncnc3c1oc1ccc(Cl)cc13)C2` [Example 122, (S)-2-(tert-Butoxy)-2-(5-(2-(8-chlorobenzofuro[3,2-d]pyrimidin-4-yl)-1,2,3,4-tetrahydroisoquinolin-6-yl)-4-(4,4-dimethylpiperidin-1-yl)-2,6-dimethylpyridin-3-yl)acetic Acid], 5 nM; for `COc1ccccc1-c1cc(N2CCc3cc(-c4c(C)nc(C)c([C@H](OC(C)(C)C)C(=O)O)c4N4CCC(C)(C)CC4)ccc3C2)ncn1` [Example 123, (S)-2-(tert-Butoxy)-2-(4-(4,4-dimethylpiperidin-1-yl)-5-(2-(6-(2-methoxyphenyl)pyrimidin-4-yl)-1,2,3,4-tetrahydroisoquinolin-6-yl)-2,6-dimethylpyridin-3-yl)acetic Acid], 11 nM. The value for `Cc1nc(C)c([C@H](OC(C)(C)C)C(=O)O)c(N2CCC(C)(C)CC2)c1-c1ccc2c(c1)CCN(c1cc(N3CCCCC3)ncn1)C2` [Example 124, (S)-2-(tert-Butoxy)-2-(4-(4,4-dimethylpiperidin-1-yl)-2,6-dimethyl-5-(2-(6-(piperidin-1-yl)pyrimidin-4-yl)-1,2,3,4-tetrahydroisoquinolin-6-yl)pyridin-3-yl)acetic Acid] was 17 nM. As for `Cc1nc(C)c([C@H](OC(C)(C)C)C(=O)O)c(N2CCC(C)(C)CC2)c1-c1ccc2c(c1)CCN(c1cc(N3CCC(O)CC3)ncn1)C2` [Example 125, (S)-2-(tert-Butoxy)-2-(4-(4,4-dimethylpiperidin-1-yl)-5-(2-(6-(4-hydroxypiperidin-1-yl)pyrimidin-4-yl)-1,2,3,4-tetrahydroisoquinolin-6-yl)-2,6-dimethylpyridin-3-yl)acetic Acid], the EC50 came to 23 nM. The value for `CCOc1cc(N2CCc3cc(-c4c(C)nc(C)c([C@H](OC(C)(C)C)C(=O)O)c4N4CCC(C)(C)CC4)ccc3C2)ncn1` [Example 126, (S)-2-(tert-Butoxy)-2-(4-(4,4-dimethylpiperidin-1-yl)-5-(2-(6-ethoxypyrimidin-4-yl)-1,2,3,4-tetrahydroisoquinolin-6-yl)-2,6-dimethylpyridin-3-yl)acetic Acid] was 5 nM. For `Cc1nc(C)c([C@H](OC(C)(C)C)C(=O)O)c(N2CCC(C)(C)CC2)c1-c1ccc2c(c1)CCN(c1cc(C(=O)O)ncn1)C2` [Example 127, (S)-6-(6-(5-(tert-Butoxy(carboxy)methyl)-4-(4,4-dimethylpiperidin-1-yl)-2,6-dimethylpyridin-3-yl)-3,4-dihydroisoquinolin-2(1H)-yl)pyrimidine-4-carboxylic Acid], the EC50 is 1280 nM. The value for `Cc1nc(N2CCc3cc(-c4c(C)nc(C)c([C@H](OC(C)(C)C)C(=O)O)c4N4CCC(C)(C)CC4)ccc3C2)c2oc3ccccc3c2n1` [Example 128, (S)-2-(tert-Butoxy)-2-(4-(4,4-dimethylpiperidin-1-yl)-2,6-dimethyl-5-(2-(2-methylbenzofuro[3,2-d]pyrimidin-4-yl)-1,2,3,4-tetrahydroisoquinolin-6-yl)pyridin-3-yl)acetic Acid] was 2 nM.

`Cc1nc(C)c([C@H](OC(C)(C)C)C(=O)O)c(N2CCC(C)(C)CC2)c1-c1ccc2c(c1)CCN(c1cc(N3CCN(C)CC3)ncn1)C2` [Example 129, (S)-2-(tert-Butoxy)-2-(4-(4,4-dimethylpiperidin-1-yl)-2,6-dimethyl-5-(2-(6-(4-methylpiperazin-1-yl)pyrimidin-4-yl)-1,2,3,4-tetrahydroisoquinolin-6-yl)pyridin-3-yl)acetic Acid]: the EC50 stood at 12 nM. `Cc1nc(C)c([C@H](OC(C)(C)C)C(=O)O)c(N2CCC(C)(C)CC2)c1-c1ccc2c(c1)CCN(c1cc(N3C[C@@H](C)O[C@@H](C)C3)ncn1)C2` [Example 130, (S)-2-(tert-Butoxy)-2-(5-(2-(6-((2S,6R)-2,6-dimethylmorpholino)pyrimidin-4-yl)-1,2,3,4-tetrahydroisoquinolin-6-yl)-4-(4,4-dimethylpiperidin-1-yl)-2,6-dimethylpyridin-3-yl)acetic Acid]: the EC50 stood at 5 nM.

`Cc1nnc(-c2cc(N3CCc4cc(-c5c(C)nc(C)c([C@H](OC(C)(C)C)C(=O)O)c5N5CCC(C)(C)CC5)ccc4C3)ncn2)o1` [Example 131, (S)-2-(tert-Butoxy)-2-(4-(4,4-dimethylpiperidin-1-yl)-2,6-dimethyl-5-(2-(6-(5-methyl-1,3,4-oxadiazol-2-yl)pyrimidin-4-yl)-1,2,3,4-tetrahydroisoquinolin-6-yl)pyridin-3-yl)acetic Acid]: the EC50 came out at 4 nM. For `Cc1cn(-c2cc(N3CCc4cc(-c5c(C)nc(C)c([C@H](OC(C)(C)C)C(=O)O)c5N5CCC(C)(C)CC5)ccc4C3)ncn2)cn1` [Example 132, (S)-2-(tert-Butoxy)-2-(4-(4,4-dimethylpiperidin-1-yl)-2,6-dimethyl-5-(2-(6-(4-methyl-1H-imidazol-1-yl)pyrimidin-4-yl)-1,2,3,4-tetrahydroisoquinolin-6-yl)pyridin-3-yl)acetic Acid] the value was 2 nM; for `Cc1nc(CO)c([C@H](OC(C)(C)C)C(=O)O)c(N2CCC(C)(C)CC2)c1-c1ccc2c(c1)CCN(c1ncnc3c1oc1ccccc13)C2` [Example 133, (S)-2-(5-(2-(Benzofuro[3,2-d]pyrimidin-4-yl)-1,2,3,4-tetrahydroisoquinolin-6-yl)-4-(4,4-dimethylpiperidin-1-yl)-2-(hydroxymethyl)-6-methylpyridin-3-yl)-2-(tert-butoxy)acetic Acid], 3 nM.
